ChEMBL document CHEMBL1201862, “PubChem BioAssay data set” (2004)
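Assay format: 96-well plates, 48-hour exposure. GI50 is the concentration that inhibits growth by half.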 Active and inactive are the calls of the source. No stated cut-off is given here; in the data, active = GI50 up to about 1.1 µM and inactive = higher.

Experiments:
Assay in all cases: growth of human tumour cells (NCI), 48 h
MOLT-4 = system: MOLT-4
HOP-92 = system: HOP-92
SNB-75 = system: SNB-75
ACHN = system: ACHN
NCI-H460 = system: NCI-H460
NCI-H522 = system: NCI-H522
M14 = system: M14
COLO 205 = system: COLO 205
U-251 = system: U-251
SW-620 = system: SW-620
OVCAR-5 = system: OVCAR-5
SF-539 = system: SF-539
LOX IMVI = system: LOX IMVI
IGROV-1 = system: IGROV-1
SK-MEL-2 = system: SK-MEL-2
HCT-116 = system: HCT-116
MCF7 = system: MCF7
BT-549 = system: BT-549
MDA-MB-435 = system: MDA-MB-435
MDA-MB-231 = system: MDA-MB-231

Measured: GI50

CN(/N=C\c1ccnc2ccccc12)c1ccccc1
inactive: MOLT-4 > 100 µM | HOP-92 25.4 µM | SNB-75 32.5 µM | ACHN 31 µM | NCI-H460 23.7 µM | NCI-H522 17.8 µM | M14 18.9 µM | COLO 205 20.3 µM | U-251 25.8 µM | SW-620 23 µM | OVCAR-5 16.8 µM | SF-539 25.7 µM | LOX IMVI 17.2 µM | IGROV-1 45.5 µM | SK-MEL-2 19.5 µM | HCT-116 17.6 µM

Cc1cc(O)c(C(c2ccncc2)c2c(O)cc(C)[nH]c2=O)c(=O)[nH]1
inactive: MOLT-4 > 100 µM | ACHN > 100 µM | NCI-H460 > 100 µM | NCI-H522 > 100 µM | M14 > 100 µM | COLO 205 > 100 µM | U-251 > 100 µM | OVCAR-5 > 100 µM | MCF7 > 100 µM | LOX IMVI > 100 µM | BT-549 > 100 µM | MDA-MB-435 > 100 µM | IGROV-1 > 100 µM | MDA-MB-231 > 100 µM | HCT-116 > 100 µM

COC(=O)Cn1cnc2c(Cl)nc(Nc3ccccc3)nc21
inactive: MOLT-4 26.5 µM | SNB-75 > 100 µM | ACHN > 100 µM | NCI-H460 32.8 µM | M14 29 µM | COLO 205 59.6 µM | U-251 66.7 µM | SW-620 65 µM | SF-539 > 100 µM | MCF7 76.2 µM | LOX IMVI 17.9 µM | BT-549 86.5 µM | MDA-MB-435 26.7 µM | IGROV-1 20.8 µM | MDA-MB-231 38 µM | SK-MEL-2 16.4 µM | HCT-116 35.5 µM

O=C(/C=C/c1ccc2c(c1)OCO2)c1ccccc(=O)c1O
inactive: MOLT-4 6.27 µM | HOP-92 13.7 µM | SNB-75 12.3 µM | ACHN 8.24 µM | NCI-H460 3.28 µM | NCI-H522 9.62 µM | COLO 205 4.94 µM | U-251 15.9 µM | SW-620 12 µM | LOX IMVI 19.9 µM | BT-549 15.7 µM | MDA-MB-435 13.9 µM | IGROV-1 5.77 µM | MDA-MB-231 37.9 µM | SK-MEL-2 20.8 µM | HCT-116 6.05 µM

CC1(C)CC(=O)c2c(nc3c(ccc4ccccc43)c2-c2ccc(NC(=O)CCCCC(=O)Nc3ccc(-c4c5c(nc6c4ccc4ccccc46)CC(C)(C)CC5=O)cc3)cc2)C1
inactive: MOLT-4 13.7 µM | SNB-75 16.3 µM | ACHN 24 µM | NCI-H460 27.7 µM | NCI-H522 29.5 µM | M14 32.3 µM | COLO 205 26.7 µM | U-251 28.4 µM | SW-620 38.6 µM | OVCAR-5 30.9 µM | SF-539 20.6 µM | MCF7 32.2 µM | LOX IMVI 17.6 µM | MDA-MB-435 26.2 µM | IGROV-1 14 µM | MDA-MB-231 19.3 µM | SK-MEL-2 33 µM | HCT-116 23.9 µM

CN(C)CCNC(=O)Cn1cnc2cccc([N+](=O)[O-])c2c1=O
inactive: MOLT-4 > 100 µM | ACHN > 100 µM | NCI-H460 > 100 µM | NCI-H522 > 100 µM | M14 > 100 µM | COLO 205 > 100 µM | U-251 > 100 µM | SW-620 > 100 µM | OVCAR-5 > 100 µM | SF-539 > 100 µM | MCF7 > 100 µM | LOX IMVI > 100 µM | MDA-MB-435 > 100 µM | IGROV-1 > 100 µM | SK-MEL-2 > 100 µM | HCT-116 > 100 µM

COc1cc2c(cc1OC)C1CCc3ccccc3CN1CC2 (stereo not drawn)
inactive: MOLT-4 > 100 µM | HOP-92 > 100 µM | SNB-75 > 100 µM | ACHN > 100 µM | NCI-H460 > 100 µM | NCI-H522 > 100 µM | M14 > 100 µM | COLO 205 > 100 µM | U-251 > 100 µM | SW-620 > 100 µM | OVCAR-5 > 100 µM | SF-539 > 100 µM | MCF7 > 100 µM | LOX IMVI > 100 µM | MDA-MB-435 > 100 µM | IGROV-1 > 100 µM | MDA-MB-231 > 100 µM | SK-MEL-2 > 100 µM | HCT-116 > 100 µM

O=C(O)CCC(/N=C(\C(=N\C(CCC(=O)O)C(=O)O)c1ccccc1)c1ccccc1)C(=O)O (stereo not drawn)
inactive: MOLT-4 > 100 µM | SNB-75 > 100 µM | ACHN > 100 µM | NCI-H460 > 100 µM | M14 > 100 µM | COLO 205 > 100 µM | U-251 > 100 µM | SW-620 > 100 µM | OVCAR-5 > 100 µM | MCF7 > 100 µM | LOX IMVI > 100 µM | BT-549 90.2 µM | MDA-MB-435 > 100 µM | MDA-MB-231 > 100 µM | SK-MEL-2 > 100 µM | HCT-116 > 100 µM
